The assay concerns the target TPK enzyme (Homo sapiens, UniProt Q9H3S4). The assay is described as follows: TPK enzyme activity test (TDP formation from thiamine and ATP, HPLC detection). It is filed as biochemical. The method, then:
The purpose of this example was to test the promoting effect of compounds on TPK enzyme activity and evaluate the in vitro activity of the compounds based on EC50 and Emax.
1.1) The constant-temperature water-bath shaker was pre-heated half an hour in advance at a pre-heating temperature of 37° C.
1.2) The stock solution of the compound to be tested was taken out, allowed to thaw at room temperature, and then diluted to the required concentration.
1.3) The required reagents were placed on ice to thaw.
2.1) For each reaction system, TPK enzyme solution, Tris-HCl buffer solution, and ATP solution were added. The concentration of ATP used was 1-500 mM. The above three solutions were formulated into a homogeneous mixture.
2.2) The mixture of the above three solutions was dispensed into centrifuge tubes. Then, the compound at the required concentration was added to each centrifuge tube. Finally, thiamine solution (1-100 μM) was added. After the addition of the above system was completed, the centrifuge tubes were tightly capped, inserted into a floating board, and placed in the constant-temperature water-bath shaker that had been pre-heated to 37° C. for incubation for 0.5-2.0 hours.
2.3) After the incubation was completed, perchloric acid stop solution was added and mixed well. Samples were taken into 1.5 mL centrifuge tubes and stored at −20° C.
3.1) The samples stored at −20° C. were taken out, thawed at room temperature, and then subjected to derivatization treatment. The samples were placed in centrifuge tubes, a potassium ferricyanide derivatization reagent was added, and finally phosphoric acid stop solution was added to stop the reaction.
3.2) The derivatized samples were placed in sample vials for liquid chromatography analysis, and the contents of TDP/thiamine were detected by high performance liquid chromatography. TKP enzyme activity=TDP (nM)/mg protein/min.
The effects of the compounds of the present invention on TPK enzyme activity at different concentrations were determined according to the above procedures.

Setting [1] is: promoting effect on TPK enzyme activity.
Setting [2] is: promoting effect on TPK enzyme activity, calculated with the effect of DMSO on TPK enzyme activity as 100%, read-out: Emax.

Like-named read-outs stand apart in the source and are kept apart here.

TPK enzyme, sequence (Q9H3S4 whole entry): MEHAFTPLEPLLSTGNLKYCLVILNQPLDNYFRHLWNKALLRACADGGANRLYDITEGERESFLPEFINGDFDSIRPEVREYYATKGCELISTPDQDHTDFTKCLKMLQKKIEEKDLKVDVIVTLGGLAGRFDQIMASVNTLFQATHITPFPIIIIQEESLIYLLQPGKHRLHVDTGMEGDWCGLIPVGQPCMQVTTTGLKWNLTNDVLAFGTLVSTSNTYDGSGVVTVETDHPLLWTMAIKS

As to `CC(=O)N1CCCc2cc(C(=O)N3CCN(c4cccc(Cl)c4Cl)CC3)ccc21` [Compound 166, 1-(6-(4-(2,3-dichlorophenyl)piperazine-1-carbonyl)-3,4-dihydroquinolin-1(2H)-yl)ethan-1-one], the Emax (usually the size of the effect at its maximum, as opposed to the concentration needed) came out at 156%. Besides, under setting [1], the EC50 (commonly the midpoint of the concentration-response curve) came to 4250 nM. The molecule `O=C1CCc2ccc(OCCCN3CCN(c4nc5ccccc5s4)CC3)cc2N1` [Compound 38, 7-(3-(4-(benzo[d]thiazol-2-yl)piperazin-1-yl)propoxy)-3,4-dihydroquinolin-2(1H)-one] displayed an EC50 under setting [1] of 1180 nM. Moreover, the Emax under setting [2] is 157%.

Consider `O=C(CN1CCN(c2ccc(F)cc2)CC1)NC(=O)NCCc1c[nH]c2ccc(F)cc12` [Compound 146], for which it took 1340 nM to reach a half-maximal effect under setting [1] (EC50). In addition, the Emax under setting [2] is 175%.

The molecule `O=C(CN1CCN(C(=O)CCC2Cc3ccccc3NC2=O)CC1)Nc1ccccc1Cl` (stereo not drawn) [Compound 140] registered an EC50 under setting [1] of 8750 nM. Besides, the Emax under setting [2] is 203%.

Regarding `O=C1CCc2ccc(OCCCCCCN3CCN(c4cccc(Cl)c4Cl)CC3)cc2N1` [Compound 3, 7-((6-(4-(2,3-dichlorophenyl)piperazin-1-yl)hexyl)oxy)-3,4-dihydroquinolin-2(1H)-one], the Emax under setting [2] is 205%.

`O=C1CCc2ccc(OCCCCN3CCN(c4cccc(Cl)c4Cl)CC3)cc2N1` [Compound 2] registered an EC50 under setting [1] of 460 nM. Under setting [2], the Emax was 155%.

In turn, `COc1cccc2cc(C(=O)N3CCN(c4cccc(C(F)(F)F)c4)CC3)c(=O)oc12` [Compound 150] came in with an EC50 under setting [1] of 139 nM. Also, the Emax under setting [2] was 212%.

For `Cc1ccc2c(n1)N(CCCCCN1CCN(c3cccc(Cl)c3Cl)CC1)CCO2` [Compound 75, 4-(5-(4-(2,3-dichlorophenyl)piperazin-1-yl)pentyl)-6-methyl-3,4-dihydro-2H-pyrido[3,2-b][1,4]oxazine], the Emax amounted to 136%. Under setting [1], this molecule returned an EC50 of 220 nM. Under setting [1], `O=C1CCc2cc(S(=O)(=O)N3CCN(c4cccc(C(F)(F)F)c4)CC3)ccc2N1` [Compound 157] displayed a 50% effective concentration (EC50) of 2610 nM. Moreover, the Emax under setting [2] is 155%. In the same order, the values of `COc1ccc(NC(=O)CN2CCN(c3cccc(Cl)c3Cl)CC2)cc1N(C)C` [Compound 48, 2-(4-(2,3-dichlorophenyl)piperazin-1-yl)-N-(3-(dimethylamino)-4-methoxyphenyl)acetamide] are 3800 nM and 156%. On to `O=C(/C=C/c1ccc(O)c(O)c1)N1CCN(c2cccc(Cl)c2Cl)CC1` [Compound 56], for which, under setting [2], the Emax was 180%. Take `CC(O)COc1ccc(/C=C/CN2CCN(c3cccc(Cl)c3Cl)CC2)cc1O` (stereo not drawn) [Compound 62, (E)-5-(3-(4-(2,3-dichlorophenyl)piperazin-1-yl)prop-1-en-1-yl)-2-(2-hydroxypropoxy)phenol]: under setting [1], the EC50 was 918 nM. Under setting [2], the maximal effect (Emax) was 137%. Turning to `O=C(NCCCCN1CCN(c2cc(C(F)(F)F)cc(C(F)(F)F)c2)CC1)c1ccc(Cl)cc1` [Compound 53, N-(4-(4-(3,5-bis(trifluoromethyl)phenyl)piperazin-1-yl)butyl)-4-chlorobenzamide], the maximum response (Emax) worked out at 133%.

With `CCCc1cc(=O)n2nc(N3CCC(C(=O)NCc4ccc(CC)cc4)CC3)sc2n1` [Compound 151], a half-maximal response under setting [1] (EC50) required 3360 nM. Under setting [2], the Emax is 155%. Regarding `O=C1CCc2cc(OCC(=O)N3CCCN(Cc4ccc(Cl)cc4)CC3)ccc2N1` [Compound 141], under setting [2], the Emax is 124%. As for `Cc1cccc(NC(=O)CSCC(=O)N2CCN(c3cc(C(F)(F)F)cc(C(F)(F)F)c3)CC2)c1` [Compound 45, 2-((2-(4-(3,5-bis(trifluoromethyl)phenyl)piperazin-1-yl)-2-oxoethyl)thio)-N-(m-tolyl)acetamide], it took 1070 nM to reach a half-maximal effect under setting [1] (EC50). The Emax under setting [2] was 152%. As to `COc1ccc(CCNC(=O)N2CCN(c3cccc(Cl)c3Cl)CC2)cc1OC` [Compound 64, 4-(2,3-dichlorophenyl)-N-(3,4-dimethoxyphenethyl)piperazine-1-carboxamide], the maximum response (Emax) is 184%. The molecule further yielded an EC50 under setting [1] of 4710 nM. Under setting [1], `O=C1CCc2ccc(OCCCN3CCN(c4cccc(Cl)c4Cl)CC3)cc2N1` [Compound 5] yielded an EC50 of 1200 nM. In addition, the Emax under setting [2] is 184%. As to `Oc1cncc(C#CCN2CCN(c3cccc(Cl)c3Cl)CC2)c1` [Compound 70, 5-(3-(4-(2,3-dichlorophenyl)piperazin-1-yl)prop-1-yn-1-yl)pyridin-3-ol], the Emax is 147%.

`O=C1COc2ccc(OCCCCN3CCN(c4cccc(Cl)c4Cl)CC3)cc2N1` [Compound 26]: under setting [1], it took 1220 nM to reach a half-maximal effect (EC50). Besides, the Emax under setting [2] was 190%. In the same order, the values of `CC(CNC(=O)COc1ccc2c(c1)CCC(=O)N2)N1CCCC1` (stereo not drawn) [Compound 152] are 9640 nM and 161%.

Under setting [1], `O=C1CCc2ccc(OCCCCN3CCC(c4cccc(Cl)c4Cl)CC3)cc2N1` [Compound 19] registered an EC50 of 5010 nM. In addition, under setting [2], the Emax is 196%.

Take `O=C(CC1Oc2ccccc2NC1=O)NCCN1CCN(c2cccc(Cl)c2Cl)CC1` (stereo not drawn) [Compound 85, N-(2-(4-(2,3-dichlorophenyl)piperazin-1-yl)ethyl)-2-(3-oxo-3,4-dihydro-2H-benzo[b][1,4]oxazin-2-yl)acetamide]: the Emax under setting [2] was 168%. Same read-out and setting: the figure for `O=C(CCn1cnc2sccc2c1=O)N1CCN(c2cccc(C(F)(F)F)c2)CC1` [Compound 147] is 147%.

The molecule `CC(=O)N1CCCc2cc(C(=O)N3CCN(c4cccc(C(F)(F)F)c4)CC3)ccc21` [Compound 165, 1-(6-(4-(3-(trifluoromethyl)phenyl)piperazine-1-carbonyl)-3,4-dihydroquinolin-1(2H)-yl)ethan-1-one] returned an Emax of 148%. This molecule also gave an EC50 under setting [1] of 9800 nM. As to `Cc1cccc(NC(=O)CSCC(=O)N2CCN(c3cccc(Cl)c3Cl)CC2)c1` [Compound 46], it took 1310 nM to reach a half-maximal effect under setting [1] (EC50). Under setting [2], the Emax was 149%. Under setting [1], `CC(C)C(CNC(=O)COc1ccc2c(c1)CCC(=O)N2)N1CCc2ccccc2C1` (stereo not drawn) [Compound 153] displayed a concentration for a half-maximal effect (EC50) of 7860 nM. Moreover, under setting [2], the Emax was 201%. Take `O=C1CCc2cc(OCCCN3CC(=O)Nc4ccc(Cl)cc43)ccc2N1` [Compound 115, 6-chloro-4-(3-((2-oxo-1,2,3,4-tetrahydroquinolin-6-yl)oxy)propyl)-3,4-dihydroquinoxalin-2(1H)-one]: the Emax under setting [2] was 159%. In the case of `CCC1Oc2cc(S(=O)(=O)N(C)CC(=O)NCc3ccc(Cl)cc3)c(C)cc2NC1=O` (stereo not drawn) [Compound 143], the Emax under setting [2] was 122%. On the same count and under the same terms, the result for `COc1cc2c(cc1OC)C(CCCCC(=O)NCc1ccc(C(C)C)cc1)C(=O)N2` (stereo not drawn) [Compound 132, 5-(5,6-dimethoxy-2-oxoindolin-3-yl)-N-(4-isopropylbenzyl)pentanamide] reads 120%; that for `COc1ccc(Cn2c(C(=O)N3CCC(CCOc4ccc5c(c4)NC(=O)CC5)CC3)cc3sccc32)cc1` [Compound 134, 7-(2-(1-(4-(4-methoxybenzyl)-4H-thieno[3,2-b]pyrrole-5-carbonyl)piperidin-4-yl)ethoxy)-3,4-dihydroquinolin-2(1H)-one], 149%. For the molecule `COC(=O)c1cc(OC)c(OC)cc1C(=O)N1CCN(c2cccc(Cl)c2Cl)CC1` [Compound 173, methyl 2-(4-(2,3-dichlorophenyl)piperazine-1-carbonyl)-4,5-dimethoxybenzoate], the Emax was determined as 132%.

Molecule `O=C1Cc2ccc(OCCCCN3CCN(c4cccc(C(F)(F)F)c4)CC3)cc2N1` [Compound 25, 6-(4-(4-(3-(trifluoromethyl)phenyl)piperazin-1-yl)butoxy)indolin-2-one] had an EC50 under setting [1] of 754 nM. Under setting [2], the maximal response (Emax) was 138%. Turning to `COc1cncc(C#CC(=O)N2CCN(c3cccc(Cl)c3Cl)CC2)c1` [Compound 72, 1-(4-(2,3-dichlorophenyl)piperazin-1-yl)-3-(5-methoxypyridin-3-yl)prop-2-yn-1-one], the maximal response (Emax) came out at 171%. Moreover, it took 3240 nM to reach a half-maximal effect under setting [1] (EC50). With `O=C1CCc2ccc(OCCN3CCN(c4nc5ccccc5s4)CC3)cc2N1` [Compound 34, 7-(2-(4-(benzo[d]thiazol-2-yl)piperazin-1-yl)ethoxy)-3,4-dihydroquinolin-2(1H)-one], it took 1300 nM to reach a half-maximal effect under setting [1] (EC50). In addition, the Emax under setting [2] is 189%.

`COc1cncc(C#CCN2CCN(c3cccc(Cl)c3Cl)CC2)c1` [Compound 69, 1-(2,3-dichlorophenyl)-4-(3-(5-methoxypyridin-3-yl)prop-2-yn-1-yl)piperazine]: the Emax was found to be 194%. The molecule also displayed a concentration for a half-maximal effect (EC50) under setting [1] of 2720 nM. Molecule `O=C(CCc1c[nH]c2ccccc12)N1CCN(CC(=O)N2CCCC2)CC1` [Compound 139] had an EC50 under setting [1] of 8090 nM. Moreover, under setting [2], the Emax was 191%. In turn, `O=C(CCOCc1ccc(N2CCCCC2)nc1)NCCc1cccc2ccc(O)cc12` [Compound 178, N-(2-(7-hydroxynaphthalen-1-yl)ethyl)-3-((6-(piperidin-1-yl)pyridin-3-yl)methoxy)propanamide] gave an Emax of 120%.

The values are drawn from patent US20260076975A1, “TPK AGONIST AND METHOD FOR USING SAME TO TREAT NEURODEGENERATIVE DISEASES” (SHANGHAI RAISING PHARMACEUTICAL CO., LTD., priority 2022, published 2026).
